US11096928B2, “Pharmaceutical composition” (WUHAN LL SCIENCE AND TECHNOLOGY DEVELOPMENT CO., LTD., priority 2016, dated 2021)

Tests used:
[1] = tested on: chronic heart failure rats; test: Therapeutic effect of pharmaceutical composition on chronic heart failure rats (high-salt fed DSS rats); format: in vivo, rat; settings: high-salt (8% sodium chloride) fed DSS rats, administration for 7 weeks, analysis at 18-weeks-age
Method: Five-week-old male DSS rats (purchased from Beijing Weitong Lihua Experimental Animal Technology Co., Ltd.) were randomly divided into 10 groups, among which, one group were fed with low salt as normal control group and the other 9 groups were fed with high salt. The low-salt feeding group were administered 0.3% sodium chloride, and high-salt feeding group were administered 8% sodium chloride to induce hypertension-cardiac hypertrophy-heart failure to form pathological model. […] The rats were killed at 18-weeks-age for analysis of blood pressure and atrial natriuretic peptide (ANP).

[2] = tested on: spontaneously hypertensive rats; test: Antihypertensive efficacy test of pharmaceutical compositions in spontaneously hypertensive rats; format: in vivo, rat; settings: SHR, intragastric once a day, 28 days after administration
Method: After that, the blood pressure sensing catheter of hypertension implant was inserted into their abdominal aorta, while the implant was fixed to the abdominal wall, and then postoperative daily care was performed after suturing. […] A group of WKY rats (provided by Beijing Weitong Lihua Co., Ltd.) was set as a normal control group, which were administered intragastrically once a day at a volume calculated by 4 mL/kg for a total of 4 weeks. Each group were administered as follows: The normal control group were not administered; The blank control group were administered 0.5% CMC-Na; […] The valsartan group were administered valsartan dissolved in 0.5% CMC-Na, at a dose of 30 mg/kg; The Azilsartan kaMedoxoMil were administered Azilsartan kaMedoxoMil dissolved in 0.5% CMC-Na, at a dose of 1 mg (azilsartan effective dose)/kg; The AHU […] group were administered AHU 377 K, dissolved in 0.5% CMC-Na, at a dose of 30 mg/kg; The AHU377 ammonium salt group were administered AHU377 ammonium salt, dissolved in 0.5% CMC-Na, at a dose of 30 mg/kg; The LCZ696 group were administered LCZ696, dissolved in 0.5% CMC-Na, at a dose of 60 mg/kg; […]

[3] = tested on: rats with heart failure by coronary artery ligation (CAL); test: Therapeutic effect of pharmaceutical compositions on acute heart failure caused by coronary artery ligation; format: in vivo, rat; settings: Sprague-Dawley rats, after 4 weeks of continuous administration; for EF (left ventricular ejection fraction): cardiac ultrasound
Excerpt: Male Sprague-Dawley rats (purchased from Beijing Weitong Lihua Experimental Animal Technology Co., Ltd.) were used to perform heart failure model by coronary artery ligation (CAL). One week after surgery, the myocardial infarct size of the rats was examined by echocardiography. […] Operations on the normal control group were the same as above, except for the absence of arterial ligation. Rats with successful modeling were randomly divided into 9 groups, wherein each group has 10 rats. […] Cardiac function was detected by cardiac ultrasound after 4 weeks of continuous administration, and changes of mean arterial pressure (MAP) and left ventricular ejection fraction (EF) were analyzed.

[4] = tested on: spontaneously hypertensive rats; test: Antihypertensive efficacy test of the compound 1K in spontaneously hypertensive rats; format: in vivo, rat; settings: SHR, intragastric, 1 mg/kg; for Heart rates change, 1 hour after administration / Systolic blood pressure change, 1 hour after administration / Heart rates change, 3 hours after administration / Systolic blood pressure change, 3 hours after administration / Heart rates change, 5 hours after administration / Systolic blood pressure change, 5 hours after administration / Heart rates change, 7 hours after administration / Systolic blood pressure change, 7 hours after administration / Heart rates change, 10 hours after administration / Systolic blood pressure change, 10 hours after administration / Heart rates change, 24 hours after administration / Systolic blood pressure change, 24 hours after administration / Heart rates change, before administration / Systolic blood pressure change, before administration: average ± standard error; for Heart rates change, before administration / Systolic blood pressure change, before administration: before administration (reference value)
Method: 12-week-old spontaneously hypertensive rats (hereinafter referred to as SHR, purchased from Beijing Weitong Lihua Experimental Animal Technology Co., Ltd.) were anesthetized with 2.5% sodium pentobarbital for intraperitoneal injection. After that, the blood pressure sensing catheter of hypertension implant was inserted into their abdominal aorta, while the implant was fixed to the abdominal wall, and then postoperative daily care was performed after suturing. Rats with systolic blood pressure exceeding 160 mm Hg were divided into 3 groups (control group, compound 1 group and compound 1K group), wherein each group has 8 rats. The control group was administrated 0.5% sodium carboxymethyl cellulose (hereinafter referred to as CMC-Na); the compound 1 group and the compound 1K group were respectively administered the compound 1 and the compound 1K, both of which were dissolved by 0.5% CMC-Na, by intragastric administration, at a dose of 1 mg/kg (calculated by the effective dose of valsartan) and a volume calculated by 4 mL/kg. The systolic blood pressure and heart rate of SHR were compared before and after administration (the systolic blood pressure and heart rate of SHR before administration as reference value), which were detected three times at each time point with the average value recorded.

CCOC(=O)[C@H](C)C[C@@H](Cc1ccc(-c2ccccc2)cc1)NC(=O)CCC(=O)O.N [AHU377 ammonium salt, Ammonium 4-(((2S,4R)-1-([1,1′-biphenyl]-4-yl)-5-ethoxy-4-methyl-5-oxopentane-2-yl)amino)-4-oxobutanoate]
ANP rate of change [1]: 135.3p %
systolic pressure change [1]: −18.3p am mmHg
heart rate change [2]: 3 ± 2.1 times/minute
systolic pressure change [2]: −18.5 ± 2.5 mmHg
MAP (mean arterial pressure) [3]: 172oup mmHg

CCOC(=O)[C@H](C)C[C@@H](Cc1ccc(-c2ccccc2)cc1)NC(=O)CCC(=O)[O-].[K+] [AHU 377K, potassium 4-(((2S,4R)-1-([1,1′-biphenyl]-4-yl)-5-ethoxy-4-methyl-5-oxopentan-2-yl)amino)-4-oxobutanoate]
ANP rate of change [1]: 143.6p %
systolic pressure change [1]: −20.6p7Km mmHg
heart rate change [2]: −8.1 ± 2.8 times/minute
systolic pressure change [2]: −15.6 ± 2.5 mmHg
MAP (mean arterial pressure) [3]: 170.6p7K mmHg
EF (left ventricular ejection fraction) [3]: 37.46p7K %

CCOc1nc2cccc(C(=O)OC(C)OC(=O)OCc3nc(C)c(C)nc3C)c2n1Cc1ccc(-c2ccccc2-c2noc(=O)[nH]2)cc1 (centres unmarked) [Compound 1]
Heart rates change, 1 hour after administration [4]: −3.4 ± 2.6 times/minute
Systolic blood pressure change, 1 hour after administration [4]: −4.9 ± 4.8 mmHg
Heart rates change, 3 hours after administration [4]: −2.33 ± 2.6 times/minute
Systolic blood pressure change, 3 hours after administration [4]: −22.0 ± 3.6 mmHg
Heart rates change, 5 hours after administration [4]: −6.5 ± 2.8 times/minute
Systolic blood pressure change, 5 hours after administration [4]: −30.5 ± 3.5 mmHg
Heart rates change, 7 hours after administration [4]: −6.2 ± 3.0 times/minute
Systolic blood pressure change, 7 hours after administration [4]: −38.8 ± 2.3 mmHg
Heart rates change, 10 hours after administration [4]: −12.3 ± 2.8 times/minute
Systolic blood pressure change, 10 hours after administration [4]: −33.0 ± 1.7 mmHg
Heart rates change, 24 hours after administration [4]: −6.7 ± 2.6 times/minute
Systolic blood pressure change, 24 hours after administration [4]: −10.2 ± 2.1 mmHg
Heart rates change, before administration [4]: 0.0 ± 0.0 times/minute
Systolic blood pressure change, before administration [4]: 0.0 ± 0.0 mmHg
melting point: 135 to 145 °C

CCOc1nc2cccc(C(=O)OC(C)OC(=O)OCc3nc(C)c(C)nc3C)c2n1Cc1ccc(-c2ccccc2-c2noc(=O)[n-]2)cc1.[K+] (centres unmarked) [Compound 1K]
ANP rate of change [1]: 158 ± 7%
systolic pressure change [1]: −48.5 ± 7.5 mmHg
heart rate change [2]: −29.3 ± 4.1 times/minute
systolic pressure change [2]: −50.4 ± 4.7 mmHg
MAP (mean arterial pressure) [3]: 145.5 ± 8.9 mmHg
EF (left ventricular ejection fraction) [3]: 48.6 ± 5.3%
Heart rates change, 1 hour after administration [4]: −3.6 ± 2.4 times/minute
Systolic blood pressure change, 1 hour after administration [4]: −7.0 ± 3.4 mmHg
Heart rates change, 3 hours after administration [4]: −5.0 ± 2.5 times/minute
Systolic blood pressure change, 3 hours after administration [4]: −34.3 ± 1.9 mmHg
Heart rates change, 5 hours after administration [4]: −10.1 ± 3.0 times/minute
Systolic blood pressure change, 5 hours after administration [4]: −46.5 ± 2.5 mmHg
Heart rates change, 7 hours after administration [4]: −17.5 ± 3.0 times/minute
Systolic blood pressure change, 7 hours after administration [4]: −49.4 ± 4.1 mmHg
Heart rates change, 10 hours after administration [4]: −25.4 ± 2.4 times/minute
Systolic blood pressure change, 10 hours after administration [4]: −45.3 ± 3.3 mmHg
Heart rates change, 24 hours after administration [4]: −28.6 ± 8 times/minute
Systolic blood pressure change, 24 hours after administration [4]: −25.9 ± 3.4 mmHg
Heart rates change, before administration [4]: 0.0 ± 0.0 times/minute
Systolic blood pressure change, before administration [4]: 0.0 ± 0.0 mmHg
antihypertensive effect compared with the compound 1 group ([4]; result in words): more potent with longer-lasting antihypertensive effect
effect of lowering heart rate compared with the compound 1 group ([4]; result in words): more potent with longer-lasting effect of lowering heart rate

CCCCC(=O)N(Cc1ccc(-c2ccccc2-c2nnn[nH]2)cc1)[C@H](C(=O)O)C(C)C [valsartan]
ANP rate of change [1]: 125 ± 52%
systolic pressure change [1]: −32.4 ± 4.6 mmHg
heart rate change [2]: −10.6 ± 3.2 times/minute
systolic pressure change [2]: −30.6 ± 3.5 mmHg
EF (left ventricular ejection fraction) [3]: 35.3arta^ %

CCOc1nc2cccc(C(=O)OCc3oc(=O)oc3C)c2n1Cc1ccc(-c2ccccc2-c2noc(=O)[n-]2)cc1.[K+] [Azilsartan kaMedoxoMil]
ANP rate of change [1]: 132.3s^ %
systolic pressure change [1]: −36.3sium mmHg
heart rate change [2]: −11.1 ± 3.7 times/minute
systolic pressure change [2]: −33.5 ± 3.2 mmHg
MAP (mean arterial pressure) [3]: 150.4sium^ mmHg
EF (left ventricular ejection fraction) [3]: 45.14siu %
